± gives the expanded uncertainty stated by the source.
Assays:
[1] = molar heat capacity at constant pressure; conditions: 101.33 kPa, Liquid, Small sample (50 mg) DSC
[2] = for viscosity / mass density: 101.33 kPa; for viscosity / mass density / surface tension liquid-gas: Liquid; for mass density: Vibrating tube method; for surface tension liquid-gas: Pendant drop shape; for Glass transition temperature: DTA

CCCCCCCCn1cc[n+](C)c1.O=C([O-])[C@@H]1CCCN1 [1-methyl-3-octyl-1H-imidazol-3-ium L-prolinate]
Conditions	mass density, [2] [kg/m3]	molar heat capacity at constant pressure, [1] [J/K/mol]	surface tension liquid-gas, [2] [mN/m]	viscosity, [2] [mPa·s]
293.15 K	1064.5 ± 2.2	561.68 ± 57	29.28 ± 0.64	1969.8 ± 290
303.15 K	1058.2 ± 2.2	569.53 ± 58	28.88 ± 0.64	839.9 ± 97
313.15 K	1051.8 ± 2.2	578.89 ± 58	28.46 ± 0.64	401.2 ± 35
323.15 K	1045.5 ± 2.2	590.88 ± 60	28.17 ± 0.63	211 ± 13
333.15 K	1039.1 ± 2.2	603.42 ± 61	27.76 ± 0.63	120.3 ± 5
343.15 K	1032.8 ± 2.2	615.85 ± 62	27.62 ± 0.63	73.2 ± 2.1
353.15 K	1026.4 ± 2.2	627.51 ± 63	27.14 ± 0.63	47.2 ± 1.2
363.15 K	1020.1 ± 2.2	–	–	31.9 ± 0.8
373.15 K	1013.9 ± 2.2	–	–	22.4 ± 0.6

Conditions	Glass transition temperature [°C]
[2]	-62 ± 1

CCCCCCCCn1cc[n+](C)c1.NCC(=O)[O-] [1-methyl-3-octylimidazolium glycinate]
Conditions	mass density, [2] [kg/m3]	molar heat capacity at constant pressure, [1] [J/K/mol]	surface tension liquid-gas, [2] [mN/m]	viscosity, [2] [mPa·s]
293.15 K	1041.7 ± 2.2	504.06 ± 51	35.37 ± 0.69	486.4 ± 45
303.15 K	1035.3 ± 2.2	511.67 ± 52	33.98 ± 0.68	248.2 ± 17
313.15 K	1029.1 ± 2.2	518.04 ± 52	32.81 ± 0.67	137.9 ± 6.3
323.15 K	1023 ± 2.2	526.8 ± 53	31.35 ± 0.66	82.4 ± 2.5
333.15 K	1016.8 ± 2.2	536.66 ± 54	30.07 ± 0.65	52.3 ± 1.3
343.15 K	1010.6 ± 2.1	546.99 ± 55	28.75 ± 0.64	34.9 ± 0.9
353.15 K	1004.4 ± 2.1	555.85 ± 56	27.42 ± 0.63	24.4 ± 0.6
363.15 K	998.6 ± 2.1	–	–	17.7 ± 0.4
373.15 K	992.8 ± 2.1	–	–	13.3 ± 0.3

Conditions	Glass transition temperature [°C]
[2]	-69 ± 1

CCCCCCCC[n+]1ccn(C)c1.N[C@@H](CO)C(=O)[O-] [1-methyl-3-octyl-1H-imidazol-3-ium L-serinate]
Conditions	mass density, [2] [kg/m3]	molar heat capacity at constant pressure, [1] [J/K/mol]	surface tension liquid-gas, [2] [mN/m]	viscosity, [2] [mPa·s]
293.15 K	1075.6 ± 2.2	599.21 ± 61	34.29 ± 0.68	2853 ± 470
303.15 K	1069.3 ± 2.2	607.97 ± 61	32.8 ± 0.67	1178.7 ± 150
313.15 K	1062.7 ± 2.2	614.69 ± 62	32.2 ± 0.7	536.2 ± 52
323.15 K	1056.1 ± 2.2	624.21 ± 63	31.6 ± 0.7	271.2 ± 19
333.15 K	1049.7 ± 2.2	634.19 ± 64	31 ± 0.7	149.6 ± 7.2
343.15 K	1043.3 ± 2.2	644.72 ± 65	30.01 ± 0.65	88.9 ± 2.9
353.15 K	1036.9 ± 2.2	655.67 ± 66	29.23 ± 0.64	56.2 ± 1.4
363.15 K	1030.5 ± 2.2	–	–	37.5 ± 1
373.15 K	1024.2 ± 2.2	–	–	26.2 ± 0.7

Conditions	Glass transition temperature [°C]
[2]	-54 ± 1

CCCCCCCC[n+]1ccn(C)c1.NC(=O)C[C@H](N)C(=O)[O-] [1-methyl-3-octylimidazolium L-asparaginate]
Conditions	mass density, [2] [kg/m3]	molar heat capacity at constant pressure, [1] [J/K/mol]	surface tension liquid-gas, [2] [mN/m]	viscosity, [2] [mPa·s]
293.15 K	–	654 ± 66	34.32 ± 0.68	–
303.15 K	1061.7 ± 2.2	662.93 ± 67	33.7 ± 0.68	3519.9 ± 610
313.15 K	1057.2 ± 2.2	670.78 ± 68	32.96 ± 0.67	1436.8 ± 200
323.15 K	1052.2 ± 2.2	682.99 ± 69	31.99 ± 0.66	659.1 ± 70
333.15 K	1048.6 ± 2.2	694.16 ± 70	31.73 ± 0.66	333.3 ± 26
343.15 K	1044.1 ± 2.2	705.81 ± 71	30.88 ± 0.66	182.6 ± 10
353.15 K	1039 ± 2.2	717.01 ± 72	30.19 ± 0.65	107.1 ± 4
363.15 K	1034.4 ± 2.2	–	–	66.6 ± 1.8
373.15 K	1030.1 ± 2.2	–	–	43.5 ± 1.1

Conditions	Glass transition temperature [°C]
[2]	-44 ± 1

CCCCCCCC[n+]1ccn(C)c1.C[C@H](N)C(=O)[O-] [1-methyl-3-octylimidazolium L-alaninate]
Conditions	mass density, [2] [kg/m3]	molar heat capacity at constant pressure, [1] [J/K/mol]	surface tension liquid-gas, [2] [mN/m]	viscosity, [2] [mPa·s]
293.15 K	985.3 ± 2.1	592.06 ± 60	28.24 ± 0.63	705.1 ± 76
303.15 K	982.1 ± 2.1	600.95 ± 61	27.9 ± 0.63	347.3 ± 28
313.15 K	978.6 ± 2.1	609.08 ± 62	27.23 ± 0.63	184.6 ± 10
323.15 K	975.8 ± 2.1	620.49 ± 63	26.61 ± 0.62	106.9 ± 4
333.15 K	972.9 ± 2.1	632.82 ± 64	26.11 ± 0.62	65.7 ± 1.7
343.15 K	969.3 ± 2.1	645.14 ± 65	25.55 ± 0.62	42.9 ± 1.1
353.15 K	966.3 ± 2.1	657.43 ± 66	24.99 ± 0.61	29.1 ± 0.7
363.15 K	962.6 ± 2.1	–	–	20.7 ± 0.5
373.15 K	959.7 ± 2.1	–	–	15.2 ± 0.4

Conditions	Glass transition temperature [°C]
[2]	-66 ± 1

Reference: the NIST ThermoML archive (doi:10.1021/je501162f)
